Experimental data: PMC7686313, “Phase 1 study of mTORC1/2 inhibitor sapanisertib (TAK-228) in advanced solid tumours, with an expansion phase in renal, endometrial or bladder cancer” (British Journal of Cancer, 2020)

Experiment: Safety (adverse events, NCI CTCAE v4.0), expansion phase
Details: expansion QW 30 mg

In the case of `CC(C)n1nc(-c2ccc3oc(N)nc3c2)c2c(N)ncnc21` [Sapanisertib], the “Abdominal pain, all-grade AE of any cause” value is reported as 6 (35) n (%), the “Abdominal pain, grade ≥3 AE of any cause” value is reported as 0 (0) n (%) and the “Acute kidney injury, grade ≥3 AE of any cause” value is reported as 0 (0) n (%). For the same compound, the “Acute kidney injury, treatment-related AE” value was 0 (0) n (%), the “Anaemia, all-grade AE of any cause” value was 2 (12) n (%) and the “Anaemia, grade ≥3 AE of any cause” value was 1 (6) n (%). For the same compound, the “Anaemia, treatment-related AE” value was 2 (12) n (%), the “Any AE” value was 17 (100) n (%) and the “Any AE resulting in dose modification/interruption” value was 8 (47) n (%). For the same compound, the “Any AE resulting in treatment discontinuation” value was 3 (18) n (%), the “Any SAE” value was 6 (35) n (%) and the “Any grade ≥3 AE” value was 9 (53) n (%). The “Any treatment-related AE” value was 17 (100) n (%), the “Any treatment-related SAE” value was 3 (18) n (%) and the “Any treatment-related grade ≥3 AE” value was 6 (35) n (%). For the same compound, the “Arthralgia, all-grade AE of any cause” value was 2 (12) n (%), the “Asthenia, grade ≥3 AE of any cause” value was 0 (0) n (%) and the “Asthenia, treatment-related AE” value was 1 (6) n (%). The “Asthenia, treatment-related grade ≥3 AE” value was 0 (0) n (%), the “Blood creatinine increased, all-grade AE of any cause” value was 4 (24) n (%) and the “Blood creatinine increased, treatment-related AE” value was 1 (6) n (%). The “Constipation, all-grade AE of any cause” value was 8 (47) n (%), the “Constipation, grade ≥3 AE of any cause” value was 1 (6) n (%) and the “Cough, all-grade AE of any cause” value was 5 (29) n (%). For the same compound, the “Decreased appetite, all-grade AE of any cause” value was 7 (41) n (%), the “Decreased appetite, treatment-related AE” value was 6 (35) n (%) and the “Dehydration, all-grade AE of any cause” value was 4 (24) n (%). The “Dehydration, grade ≥3 AE of any cause” value was 0 (0) n (%), the “Dehydration, treatment-related AE” value was 2 (12) n (%) and the “Dehydration, treatment-related grade ≥3 AE” value was 0 (0) n (%). For the same compound, the “Depression, all-grade AE of any cause” value was 4 (24) n (%), the “Diarrhoea, all-grade AE of any cause” value was 8 (47) n (%) and the “Diarrhoea, grade ≥3 AE of any cause” value was 0 (0) n (%). For the same compound, the “Diarrhoea, treatment-related AE” value was 5 (29) n (%), the “Diarrhoea, treatment-related grade ≥3 AE” value was 0 (0) n (%) and the “Dizziness, all-grade AE of any cause” value was 0 (0) n (%). For the same compound, the “Dry mouth, all-grade AE of any cause” value was 3 (18) n (%), the “Dry mouth, treatment-related AE” value was 1 (6) n (%) and the “Dysgeusia, all-grade AE of any cause” value was 4 (24) n (%). The “Dysgeusia, treatment-related AE” value was 3 (18) n (%), the “Dyspepsia, treatment-related AE” value was 3 (18) n (%) and the “Dyspnoea, grade ≥3 AE of any cause” value was 0 (0) n (%). The “Fatigue, all-grade AE of any cause” value was 11 (65) n (%), the “Fatigue, grade ≥3 AE of any cause” value was 2 (12) n (%) and the “Fatigue, treatment-related AE” value was 11 (65) n (%). The “Fatigue, treatment-related grade ≥3 AE” value was 2 (12) n (%), the “Haematuria, grade ≥3 AE of any cause” value was 0 (0) n (%) and the “Headache, all-grade AE of any cause” value was 2 (12) n (%). For the same compound, the “Headache, treatment-related AE” value was 0 (0) n (%), the “Hypercholesterolemia, treatment-related AE” value was 1 (6) n (%) and the “Hyperglycaemia, all-grade AE of any cause” value was 12 (71) n (%). The “Hyperglycaemia, grade ≥3 AE of any cause” value was 2 (12) n (%), the “Hyperglycaemia, treatment-related AE” value was 12 (71) n (%) and the “Hyperglycaemia, treatment-related grade ≥3 AE” value was 2 (12) n (%). The “Hyperkalaemia, grade ≥3 AE of any cause” value was 0 (0) n (%), the “Hypertension, grade ≥3 AE of any cause” value was 0 (0) n (%) and the “Hypokalaemia, grade ≥3 AE of any cause” value was 1 (6) n (%). For the same compound, the “Hyponatremia, grade ≥3 AE of any cause” value was 1 (6) n (%), the “Hypophosphatemia, grade ≥3 AE of any cause” value was 2 (12) n (%) and the “Hypophosphatemia, treatment-related AE” value was 2 (12) n (%). The “Hypophosphatemia, treatment-related grade ≥3 AE” value was 1 (6) n (%), the “Lymphopenia, grade ≥3 AE of any cause” value was 0 (0) n (%) and the “Lymphopenia, treatment-related grade ≥3 AE” value was 0 (0) n (%). The “Musculoskeletal chest pain, grade ≥3 AE of any cause” value was 0 (0) n (%), the “Nausea, all-grade AE of any cause” value was 13 (76) n (%) and the “Nausea, grade ≥3 AE of any cause” value was 2 (12) n (%). For the same compound, the “Nausea, treatment-related AE” value was 11 (65) n (%), the “Nausea, treatment-related grade ≥3 AE” value was 1 (6) n (%) and the “Oedema peripheral, all-grade AE of any cause” value was 1 (6) n (%). The On-study deaths was 2 (12) n (%), the “Oropharyngeal pain, all-grade AE of any cause” value was 1 (6) n (%) and the “Pain in extremity, grade ≥3 AE of any cause” value was 2 (12) n (%). For the same compound, the “Pneumonia, grade ≥3 AE of any cause” value was 0 (0) n (%), the “Pruritus generalised, all-grade AE of any cause” value was 4 (24) n (%) and the “Pruritus generalised, treatment-related AE” value was 2 (12) n (%). For the same compound, the “Pruritus generalised, treatment-related grade ≥3 AE” value was 0 (0) n (%), the “Pruritus, all-grade AE of any cause” value was 1 (6) n (%) and the “Pruritus, treatment-related AE” value was 1 (6) n (%). For the same compound, the “Pyrexia, all-grade AE of any cause” value was 1 (6) n (%), the “Rash maculo-papular, all-grade AE of any cause” value was 3 (18) n (%) and the “Rash maculo-papular, grade ≥3 AE of any cause” value was 0 (0) n (%). For the same compound, the “Rash maculo-papular, treatment-related AE” value was 2 (12) n (%), the “Rash maculo-papular, treatment-related grade ≥3 AE” value was 0 (0) n (%) and the “Rash, treatment-related AE” value was 0 (0) n (%). The “Rash, treatment-related grade ≥3 AE” value was 0 (0) n (%), the “Sepsis, grade ≥3 AE of any cause” value was 1 (6) n (%) and the “Stomatitis (includes oropharyngeal pain and mucosal inflammation), treatment-related AE” value was 8 (47) n (%). The “Stomatitis, all-grade AE of any cause” value was 9 (53) n (%), the “Stomatitis, grade ≥3 AE of any cause” value was 0 (0) n (%) and the “Stomatitis, treatment-related grade ≥3 AE” value was 0 (0) n (%). For the same compound, the “Thrombocytopenia, grade ≥3 AE of any cause” value was 1 (6) n (%), the “Thrombocytopenia, treatment-related grade ≥3 AE” value was 1 (6) n (%) and the “Transitional cell carcinoma, grade ≥3 AE of any cause” value was 1 (6) n (%). The “Urinary tract infection, all-grade AE of any cause” value was 1 (6) n (%), the “Vomiting, all-grade AE of any cause” value was 10 (59) n (%) and the “Vomiting, grade ≥3 AE of any cause” value was 1 (6) n (%). The “Vomiting, treatment-related AE” value was 10 (59) n (%), the “Weight decreased, all-grade AE of any cause” value was 2 (12) n (%) and the “Weight decreased, treatment-related AE” value was 0 (0) n (%).
